Experimental data reported in patent US9650366B2, “Heterocycle-substituted pyridyl benzothiophenes as kinase inhibitors” (Allergan, Inc., priority 2014, dated 2017).

Legend:
Assay type in all cases: biochemical
human GST-PKR = human GST-PKR (Homo sapiens (Human), UniProt P19525); assay: PKR KinaseGlo Assay; details: recombinant human GST-PKR, 6.6 uM ATP
Experimental: Commercially available recombinant human GST-PKR (SignalChem, Canada; 1.5 uM-2 uM stock) is diluted to 500 nM in assay buffer (20 mM Tris-HCl, pH 7.2, 10 mM KCl, 10 mM MgCl2, 10% glycerol). Preactivated PKR is dispensed to 384/96-well black plates at 3.125/12.5 uls/well using the liquid handler Janus. Appropriate dilutions of inhibitors are added to 384/96-well plate followed by 6.6 uM ATP (final) and incubated for 10 minutes at room temperature. The remaining ATP/well is determined by adding 6.25/25 uls/well Kinase-Glo assay mix (Promega) and luminescence is measured on EnVision luminescence plate reader (integration time, 0.2 sec; Perkin-Elmer, Massachusetts, USA). The % inhibition for the compounds is calculated using ATP only (100% inhibition) and PKR+ATP (0% inhibition). IC50 values are determined by plotting % activity versus inhibitor concentration. Curves are fitted using Activity base XLfit (IDBS, UK) using the formula—
4 Parameter Logistic Model
fit=(A+((B−A)/(1+(10^((C−x)*D))))) inv=(C−(log(((B−A)/(y−A))−1)/D)) res=(y−fit)

VEGFR2 (KDR) = VEGFR2 (KDR) (Homo sapiens (Human), UniProt P35968); assay: VEGFR2 Kinase Assay; details: purified cytoplasmic domain KDR protein, 2.7 μM ATP
Experimental: Biochemical KDR kinase assays were performed in 96 well microtiter plates that were coated overnight with 75 μg/well of poly-Glu-Tyr (4:1) in 10 mM Phosphate Buffered Saline (PBS), pH 7.4. The coated plates were washed with 2 mls per well PBS+0.05% Tween-20 (PBS-T), blocked by incubation with PBS containing 1% BSA, then washed with 2 mls per well PBS-T prior to starting the reaction. Reactions were carried out in 100 μL reaction volumes containing 2.7 μM ATP in kinase buffer (50 mM Hepes buffer pH 7.4, 20 mM MgCl2, 0.1 mM MnCl2 and 0.2 mM Na3VO4). Test compounds were reconstituted in 100% DMSO and added to the reaction to give a final DMSO concentration of 5%. Reactions were initiated by the addition 20 ul per well of kinase buffer containing 200-300 ng purified cytoplasmic domain KDR protein (BPS Bioscience, San Diego, Calif.). Following a 15 minute incubation at 30° C., the reactions were washed 2 mls per well PBS-T. 100 μl of a monoclonal anti-phosphotyrosine antibody-peroxidase conjugate diluted 1:10,000 in PBS-T was added to the wells for 30 minutes. Following a 2 mls per well wash with PBS-Tween-20, 100 μl of 0-Phenylenediamine Dihydrochloride in phosphate-citrate buffer, containing urea hydrogen peroxide, was added to the wells for 7-10 minutes as a colorimetric substrate for the peroxidase. The reaction was terminated by the addition of 100 μl of 2.5N H2SO4 to each well and read using a microplate ELISA reader set at 492 nm. IC50 values for compound inhibition were calculated directly from graphs of optical density (arbitrary units) versus compound concentration following subtraction of blank values.

PDGFRβ = PDGFRβ (Homo sapiens (Human), UniProt P09619); assay: PDGFRβ Kinase Assay; details: purified cytoplasmic domain PDGFR-b protein, 36 μM ATP
Experimental: Biochemical PDGFRβ kinase assays were performed in 96 well microtiter plates that were coated overnight with 75 μg of poly-Glu-Tyr (4:1) in 10 mM Phosphate Buffered Saline (PBS), pH 7.4. The coated plates were washed with 2 mls per well PBS+0.05% Tween-20 (PBS-T), blocked by incubation with PBS containing 1% BSA, then washed with 2 mls per well PBS-T prior to starting the reaction. Reactions were carried out in 100 μL reaction volumes containing 36 μM ATP in kinase buffer (50 mM Hepes buffer pH 7.4, 20 mM MgCl2, 0.1 mM MnCl2 and 0.2 mM Na3VO4). Test compounds were reconstituted in 100% DMSO and added to the reaction to give a final DMSO concentration of 5%. Reactions were initiated by the addition 20 ul per well of kinase buffer containing 200-300 ng purified cytoplasmic domain PDGFR-b protein (Millipore). Following a 60 minute incubation at 30° C., the reactions were washed 2 mls per well PBS-T. 100 μl of a monoclonal anti-phosphotyrosine antibody-peroxidase conjugate diluted 1:10,000 in PBS-T was added to the wells for 30 minutes. […] The reaction was terminated by the addition of 100 μl of 2.5N H2SO4 to each well and read using a microplate ELISA reader set at 492 nm. IC50 values for compound inhibition were calculated directly from graphs of optical density (arbitrary units) versus compound concentration following subtraction of blank values.

Chain of human GST-PKR (P19525 whole entry): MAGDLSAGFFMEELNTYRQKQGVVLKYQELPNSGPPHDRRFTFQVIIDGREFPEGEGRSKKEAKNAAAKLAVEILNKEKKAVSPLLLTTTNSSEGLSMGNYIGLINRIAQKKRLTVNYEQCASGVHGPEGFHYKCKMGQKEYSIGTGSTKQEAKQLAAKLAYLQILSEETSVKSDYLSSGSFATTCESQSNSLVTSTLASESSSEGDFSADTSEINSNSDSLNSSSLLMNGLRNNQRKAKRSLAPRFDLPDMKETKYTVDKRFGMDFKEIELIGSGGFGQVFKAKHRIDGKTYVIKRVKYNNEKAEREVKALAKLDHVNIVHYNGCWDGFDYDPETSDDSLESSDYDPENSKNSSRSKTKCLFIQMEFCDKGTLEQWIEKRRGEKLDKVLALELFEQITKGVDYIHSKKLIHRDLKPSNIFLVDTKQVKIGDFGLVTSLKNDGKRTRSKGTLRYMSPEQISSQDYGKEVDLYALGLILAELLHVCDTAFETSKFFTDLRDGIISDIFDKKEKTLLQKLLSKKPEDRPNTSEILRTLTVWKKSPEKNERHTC
Chain of VEGFR2 (KDR) (P35968 786-1356): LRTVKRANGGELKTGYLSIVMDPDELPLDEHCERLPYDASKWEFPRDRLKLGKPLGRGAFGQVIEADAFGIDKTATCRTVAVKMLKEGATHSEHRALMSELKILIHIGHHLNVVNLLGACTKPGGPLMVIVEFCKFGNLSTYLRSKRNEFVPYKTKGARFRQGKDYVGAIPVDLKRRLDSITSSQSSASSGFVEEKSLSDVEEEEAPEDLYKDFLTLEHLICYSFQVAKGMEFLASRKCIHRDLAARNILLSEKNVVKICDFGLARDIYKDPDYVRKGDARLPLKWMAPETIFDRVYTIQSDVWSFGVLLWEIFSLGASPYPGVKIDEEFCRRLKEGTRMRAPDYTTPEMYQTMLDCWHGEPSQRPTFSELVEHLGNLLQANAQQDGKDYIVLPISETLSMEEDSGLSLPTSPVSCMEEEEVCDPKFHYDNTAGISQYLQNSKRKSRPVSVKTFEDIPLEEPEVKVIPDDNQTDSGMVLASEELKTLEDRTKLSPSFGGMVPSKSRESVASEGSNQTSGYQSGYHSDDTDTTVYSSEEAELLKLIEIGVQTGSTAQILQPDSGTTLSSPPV
Chain of PDGFRβ (P09619 554-1106): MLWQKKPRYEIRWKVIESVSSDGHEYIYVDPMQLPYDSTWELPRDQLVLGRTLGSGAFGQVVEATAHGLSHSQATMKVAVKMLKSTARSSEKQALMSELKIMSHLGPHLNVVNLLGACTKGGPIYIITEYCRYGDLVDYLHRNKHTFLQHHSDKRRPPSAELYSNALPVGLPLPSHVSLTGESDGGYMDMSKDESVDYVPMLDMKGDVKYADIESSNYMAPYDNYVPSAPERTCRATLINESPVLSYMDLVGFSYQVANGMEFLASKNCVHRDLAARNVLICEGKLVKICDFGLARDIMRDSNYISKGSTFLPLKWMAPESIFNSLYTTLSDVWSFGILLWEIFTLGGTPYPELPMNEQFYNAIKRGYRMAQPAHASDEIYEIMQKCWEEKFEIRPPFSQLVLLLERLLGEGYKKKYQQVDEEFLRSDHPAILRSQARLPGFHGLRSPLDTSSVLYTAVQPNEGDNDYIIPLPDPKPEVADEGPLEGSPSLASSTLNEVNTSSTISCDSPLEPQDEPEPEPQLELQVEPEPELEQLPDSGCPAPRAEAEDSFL

| Structure (SMILES) | IC50 (human GST-PKR) [nM] | IC50 (VEGFR2 (KDR)) [nM] | IC50 (PDGFRβ) [nM] |
| --- | --- | --- | --- |
| O=C(Nc1ccc(Cl)c(C(F)(F)F)c1)Nc1ccc2sc(-c3cncc(-c4nn[nH]n4)c3)cc2c1 [Example 1, 1-[4-chloro-3-(trifluoromethyl)phenyl]-3-{2-[5-(2H-tetrazol-5-yl)pyridin-3-yl]-1-benzothien-5-yl}urea] | 727 |  |  |
| Nc1ncc(-c2nn[nH]n2)cc1-c1cc2cc(NC(=O)Nc3ccc(Cl)c(C(F)(F)F)c3)ccc2s1 [Example 2, 1-{2-[2-amino-5-(2H-tetrazol-5-yl)pyridin-3-yl]-1-benzothien-5-yl}-3-[4-chloro-3-(trifluoromethyl)phenyl]urea] | 140 |  |  |
| Nc1ncc(-c2nnn(CCCO)n2)cc1-c1cc2cc(NC(=O)Nc3cc(C(F)(F)F)cc(C(F)(F)F)c3)ccc2s1 [Example 6, 1-(2-{2-amino-5-[2-(3-hydroxypropyl)-2H-tetrazol-5-yl]pyridin-3-yl}-1-benzothien-5-yl)-3-[3,5-bis(trifluoromethyl)phenyl]urea] | 66 |  |  |
| Cc1ccoc1C(=O)Nc1cccc(C#Cc2cncc(-c3nnn(CCCO)n3)c2)c1 [Example 9, N-[3-({5-[2-(3-hydroxypropyl)-2H-tetrazol-5-yl]pyridin-3-yl}ethynyl)phenyl]-3-methyl-2-furamide] | > 10000 | 5 | 21 |
| Cc1cccc(C(=O)Nc2cccc(C#Cc3cncc(-c4nnn(CCCO)n4)c3)c2)c1 [Example 10, N-[3-({5-[2-(3-hydroxypropyl)-2H-tetrazol-5-yl]pyridin-3-yl}ethynyl)phenyl]-3-methylbenzamide] |  | 7 |  |
| O=C(Nc1ccc(C#Cc2cncc(-c3nnn(CCCO)n3)c2)cc1)Nc1cc(C(F)(F)F)ccc1F [Example 12, 1-[2-fluoro-5-(trifluoromethyl)phenyl]-3-[4-({5-[2-(3-hydroxypropyl)-2H-tetrazol-5-yl]pyridin-3-yl}ethynyl)phenyl]urea] | > 10000 | 8 |  |
| Nc1ncc(-c2ncccn2)cc1-c1cc2cc(NC(=O)Nc3ccc(Cl)c(C(F)(F)F)c3)ccc2s1 [Example 13, 1-[2-(2-amino-5-pyrimidin-2-ylpyridin-3-yl)-1-benzothien-5-yl]-3-[4-chloro-3-(trifluoromethyl)phenyl]urea] | 558 |  |  |
| Nc1ncc(-c2cnccn2)cc1-c1cc2cc(NC(=O)Nc3ccc(Cl)c(C(F)(F)F)c3)ccc2s1 [Example 14, 1-[2-(2-amino-5-pyrazin-2-ylpyridin-3-yl)-1-benzothien-5-yl]-3-[4-chloro-3-(trifluoromethyl)phenyl]urea] | 301 |  |  |

Continued, values first:

| IC50 (human GST-PKR) [nM] | IC50 (VEGFR2 (KDR)) [nM] | IC50 (PDGFRβ) [nM] | Structure (SMILES) |
| --- | --- | --- | --- |
| 39 |  |  | Nc1ncc(-c2nnn(CCCO)n2)cc1-c1cc2cc(NC(=O)Nc3ccc(Cl)c(C(F)(F)F)c3)ccc2s1 [Example 3, 1-(2-{2-amino-5-[2-(3-hydroxypropyl)-2H-tetrazol-5-yl]pyridin-3-yl}-1-benzothien-5-yl)-3-[4-chloro-3-(trifluoromethyl)phenyl]urea] |
| 99 |  |  | Nc1ncc(-c2nnn(CCCO)n2)cc1-c1cc2cc(NC(=O)Nc3ccc(F)c(C(F)(F)F)c3)ccc2s1 [Example 4, 1-(2-{2-amino-5-[2-(3-hydroxypropyl)-2H-tetrazol-5-yl]pyridin-3-yl}-1-benzothien-5-yl)-3-[4-fluoro-3-(trifluoromethyl)phenyl]urea] |
| 76 |  |  | Nc1ncc(-c2nnn(CCCO)n2)cc1-c1cc2cc(NC(=O)Nc3cc(F)cc(C(F)(F)F)c3)ccc2s1 [Example 5, 1-(2-{2-amino-5-[2-(3-hydroxypropyl)-2H-tetrazol-5-yl]pyridin-3-yl}-1-benzothien-5-yl)-3-[3-fluoro-5-(trifluoromethyl)phenyl]urea] |
| 82 |  |  | Nc1ncc(-c2nnn(CCO)n2)cc1-c1cc2cc(NC(=O)Nc3ccc(Cl)c(C(F)(F)F)c3)ccc2s1 [Example 8, 1-(2-{2-amino-5-[2-(2-hydroxyethyl)-2H-tetrazol-5-yl]pyridin-3-yl}-1-benzothien-5-yl)-3-[4-chloro-3-(trifluoromethyl)phenyl]urea] |
| 158 |  |  | Nc1ncc(-c2nnn(CCCO)n2)cc1C#Cc1cccc(NC(=O)Nc2ccc(Cl)c(C(F)(F)F)c2)c1 [Example 11, 1-[3-({2-amino-5-[2-(3-hydroxypropyl)-2H-tetrazol-5-yl]pyridin-3-yl}ethynyl)phenyl]-3-[4-chloro-3-(trifluoromethyl)phenyl]urea] |
